Read-outs that look alike come from different tables or passages of the source.
Key:
[1] = test system: rats; experiment: Diuretic and saluretic activity (urine volume and electrolyte excretion over 6 h), technique of Lipschits et al.; assay type: in vivo; settings: rat, 20 mg/kg po, (N) = not statistically significant vs control
Procedure: The synthesized compounds were, therefore, subjected a pharmacological screening to evaluate a possible diuretic and salt excreting activity. Thus, an acute dose of each of the products of synthesis (20 or 25 mg/kg) was administered to rats and the amount of urine and the excretion of electrolytes was measured, following the technique described by Lipschits et al., with certain modifications (J. Pharmacol. Exp.Ther. 1943-79; 97-110).
The volume (ml/kg/6 h), the pH and the excretion of sodium, potassium and chloride ions (mEq/kg/6 h) were determined on the urine quantitatively collected over 6 hours, using triamterene and hydrochlorothiazide as reference diuretics.

[2] = test system: isolated guinea pig trachea; experiment: In vitro trachea relaxing activity (spontaneous tone in isolated trachea, method of Luduena); assay type: cell-based; settings: Cavia porcellus, 30 mcg/ml, relative to maximum relaxation by noradrenaline 0.3 mcg/ml
Procedure: (§1) The platelet antiaggregation activity was determined in vitro using platelet rich rabbit plasma and arachidonic acid (50 mcg/ml) as aggregation inducing agent. The results are given for tracheal relaxation as percentage inhibition of the tracheal tone relative to the maximum relaxation induced by noradrenaline (0.3 mcg/ml) and for the platelet aggregation as a percentage of the maximum effect observed with the proaggregation agent.

[3] = test system: platelet rich rabbit plasma; experiment: In vitro platelet antiaggregation activity, arachidonic acid induced, platelet rich plasma; assay type: cell-based; settings: Oryctolagus cuniculus; for activity at 10 µg/mL: 10 mcg/ml, arachidonic acid 50 mcg/ml
Procedure: as §1

[4] = test system: human platelets; experiment: In vitro inhibition of human platelet aggregation, Born's method; assay type: cell-based
Procedure: The platelet antiaggregation activity of the active products in the initial screening (Table 4) has been confirmed and extended by evaluating the capacity thereof to inhibit in vitro the aggregation of human platelets using Born's method. ADP (1 mcM), collagen (2 mcg/ml), arachidonic acid (1 mM), U-46619 (1,4 mcM) and IBOP (225 nM) were used as aggregation inducing agents. The results obtained (Table 5) show the capacity of the products tested to inhibit dose dependently the platelet aggregation induced by collagen, arachidonic acid, U-46619 and IBOP, probably through interaction with the platelet endoperoxide/thromboxane receptor. Therefore, said compounds might be potentially useful in the treatment of disorders in which the thromboxanes play a part, such as myocardial infarct, cerebrovascular diseases and asthmatic and/or inflammatory states.

[5] = test system: histamine induced bronchospasm in anaesthetized guinea pig; experiment: In vivo bronchodilatory effect, histamine induced bronchospasm (Konzett and Rossler); settings: area under the curve relative to theophylline
Procedure: Konzett and Rosslet's technique was used for evaluation, with the capacity of the tested products, when administered intraduodenally at dose levels of 25 and 100 mg/kg, to antagonize a histamine induced bronchospasm (7.5 mcg/ml) in anaesthetized guinea pig being determined. Theophylline (25 mg/kg, i.d.) was used as reference drug, with the areas under the curve defined by the bronchospasm inhibition percentages and the post-administration time being compared.

[6] = IBOP 225 nM, read-out: Concentration inhibiting > 60% platelet aggregation, IBOP
[7] = U-46619 1,4 mcM, read-out: Concentration inhibiting > 60% platelet aggregation, U-46619
[8] = arachidonic acid 1 mM, read-out: Concentration inhibiting > 60% platelet aggregation, arachidonic acid
[9] = collagen 2 mcg/ml, read-out: Concentration inhibiting > 60% platelet aggregation, collagen

CCN1c2nc(C)c(-c3ccccc3)nc2C(N)=NS1(=O)=O [1-ethyl-6-phenyl-7-methyl, 4-amino-1-ethyl-6-phenyl-7-methylpyrazino[2,3-c]-1,2,6-thiadiazine 2,2-dioxide]
response vs control in vivo at 20 mg/kg ([1]; read-out: Cl excretion, treated group/control group ratio): 123%
response vs control in vivo at 20 mg/kg ([1]; read-out: K excretion, treated group/control group ratio): 85%
response vs control in vivo at 20 mg/kg ([1]; read-out: Na excretion, treated group/control group ratio): 142%
response vs control in vivo at 20 mg/kg ([1]; read-out: Na/K): 165%
response vs control in vivo at 20 mg/kg ([1]; read-out: Volume urine, treated group/control group ratio): 121%
activity at 30 µg/mL [2]: 93%
activity at 10 µg/mL [3]: 100%
IC60 [4, 6]: 3000 nM
IC60 [4, 7]: 3000 nM
IC60 [4, 8]: 30000 nM
IC60 [4, 9]: 1000 nM

CCN1c2nc(-c3ccccc3)c(Br)nc2C(N)=NS1(=O)=O [6-bromo-1-ethyl-7-phenyl, 4-amino-6-bromo-1-ethyl-7-phenylpyrazino[2,3-c]-1,2,6-thiadiazine 2,2-dioxide]
activity at 30 µg/mL [2]: 63%
activity at 10 µg/mL [3]: 100%

CCN1c2nc3c(nc2C(N)=NS1(=O)=O)CCCC3 [4-amino-1-ethyl-6,7,8,9-tetrahydro-1,2,6-thiadiazine[3,4-b]quinoxaline 2,2-dioxide]
activity at 30 µg/mL [2]: 82%
Bronchodilatory activity (area ratio) ([5]; 25 mg/kg i.d.): 0.6
Bronchodilatory activity (area ratio) ([5]; 100 mg/kg i.d.): 0.4

CCN1c2ncc(-c3ccccc3)nc2C(N)=NS1(=O)=O [1-ethyl-6-phenyl, 4-amino-1-ethyl-6-phenyl-pyrazino[2,3-c]-1,2,6-thiadiazine 2,2-dioxide]
activity at 10 µg/mL [3]: 100%
IC60 [4, 6]: 1000 nM
IC60 [4, 7]: 10000 nM
IC60 [4, 8]: 30000 nM
IC60 [4, 9]: 1000 nM

Cn1c(=O)c2[nH]cnc2n(C)c1=O [Theophylline, reference compound]
activity at 30 µg/mL [2]: 60%
Bronchodilatory activity (area ratio) ([5]; 25 mg/kg i.d.): 1
Bronchodilatory activity (area ratio) ([5]; 100 mg/kg i.d.): 1

CCN1c2nc(-c3ccccc3)c(-c3ccccc3)nc2C(N)=NS1(=O)=O [1-ethyl-6,7-diphenyl, 4-amino-1-ethyl-6,7-diphenylpyrazino[2,3-c]-1,2,6-thiadiazine 2,2-dioxide]
activity at 10 µg/mL [3]: 100%
IC60 [4, 6]: 3000 nM
IC60 [4, 7]: 1000 nM
IC60 [4, 8]: 30000 nM
IC60 [4, 9]: 1000 nM

CCN1c2ncc(C)nc2C(N)=NS1(=O)=O [1-ethyl-6-methyl, 4-amino-1-ethyl-6-methylpyrazino[2,3-c]-1,2,6-thiadiazine 2,2-dioxide]
activity at 30 µg/mL [2]: 67%
Bronchodilatory activity (area ratio) ([5]; 25 mg/kg i.d.): 0.8
Bronchodilatory activity (area ratio) ([5]; 100 mg/kg i.d.): 1.3

CC(=O)Oc1ccccc1C(=O)O [Aspirin, reference compound]
activity at 2.5 µg/mL ([3]; read-out: platelet antiaggregation activity (%)): 100%
